Experimental data as given in patent US20090215710A1, “CARBOHYDRATE BASED TOLL-LIKE RECEPTOR (TLR) ANTAGONISTS” (RELIANCE LIFE SCIENCES PVT. LTD., priority 2007, published 2009).

Experiments:
[1] = Cell viability in pre-screen (Table 1); format: cell-based
TNF = assay: Pre-screen for TNF inhibition activity of synthesized molecules (Table 1); format: cell-based

Compound | % Viability ([1]; 1 uM) [%] | % Viability ([1]; 10 uM) [%] | % Viability ([1]; 50 uM) [%] | % Viability ([1]; 100 uM) [%] | % TNF Inhibition (TNF; 1 uM) [%] | % TNF Inhibition (TNF; 10 uM) [%] | % TNF Inhibition (TNF; 50 uM) [%] | % TNF Inhibition (TNF; 100 uM) [%]
COc1ccc(O[C@H]2O[C@@H]3COC(c4ccccc4)O[C@H]3[C@H](O[C@@H]3O[C@H](COC(=O)CCl)[C@@H](OC(C)=O)[C@H](OC(C)=O)[C@H]3OC(C)=O)[C@H]2NC(=O)C(Cl)(Cl)Cl)cc1 (stereo partly drawn) [RSCL-0630, p-Methoxy phenyl-O-(2,3,4-tri-O-acetyl-6-O-chloroacetyl-β-D-glucopyranosyl)-(1-3)-2-deoxy-2-trichloroacetamido-4,6-O-benzylidene-α-D-glucopyranoside] | 95 | 88 | 85 | 81 | 31 | 36 | 61 | 0
COc1ccc(O[C@H]2O[C@@H]3COC(c4ccccc4)O[C@H]3[C@H](O)[C@H]2NC(=O)C(Cl)(Cl)Cl)cc1 (stereo partly drawn) [RSCL-0400, 1-O-(p-Methoxyphenyl)-2-deoxy-2-trichloroacetamido-4,6-O-benzylidene-α-D-glucopyranoside] | 93 | 82 | 70 | 63 | 0 | 0 | 0 | 0
COc1ccc(O[C@H]2O[C@@H]3COC(c4ccccc4)O[C@H]3[C@H](O[C@@H]3O[C@H](CO)[C@@H](OC(C)=O)[C@H](OC(C)=O)[C@H]3OC(C)=O)[C@H]2NC(=O)C(Cl)(Cl)Cl)cc1 (stereo partly drawn) [RSCL-0626, p-Methoxy phenyl-O-(2,3,4-tri-O-acetyl-β-D-glucopyranosyl)-(1-3)-2-deoxy-2-trichloroacetamido-4,6-O-benzylidene-α-D-glucopyranoside] | 97 | 92 | 95 | 89 | 39 | 43 | 13 | 52
COc1ccc(O[C@H]2O[C@@H]3COC(c4ccccc4)O[C@H]3[C@H](O[C@@H]3O[C@H](COC(=O)CCC(C)=O)[C@@H](OC(C)=O)[C@H](OC(C)=O)[C@H]3OC(C)=O)[C@H]2NC(=O)C(Cl)(Cl)Cl)cc1 (stereo partly drawn) [RSCL-0625, p-Methoxy phenyl-O-(2,3,4-tri-O-acetyl-6-O-levulinoyl-β-D-glucopyranosyl)-(1-3)-2-deoxy-2-trichloroacetamido-4,6-O-benzylidene-α-D-glucopyranoside] | 90 | 96 | 99 | 97 | 31 | 27 | 22 | 31
COc1ccc(O[C@H]2O[C@@H]3COC(c4ccccc4)O[C@H]3[C@H](O[C@@H]3O[C@H](CO)[C@@H](O)[C@H](OC(C)=O)[C@H]3OC(C)=O)[C@H]2NC(=O)C(Cl)(Cl)Cl)cc1 (stereo partly drawn) [RSCL-0628, p-Methoxy phenyl-O-(2,3-di-O-acetyl-β-D-glucopyranosyl)-(1-3)-2-deoxy-2-trichloroacetamido-4,6-O-benzylidene-α-D-glucopyranoside] | 89 | 60 | 10 | 8 | 0 | 92 | 102 | 100
p-Methoxy phenyl-2-deoxy-2-trichloroacetamido-4,6-O-benzylidene-β-D-glucopyranosyl)-(1-4)-O-(2,3-di-O-acetyl-6-O-levulinoyl-β-D-glucopyranoside [RSCL-0635] | 97 | 89 | 82 | 81 | 0 | 0 | 0 | 0
COc1ccc(O[C@@H]2O[C@@H]3COC(c4ccccc4)O[C@H]3[C@H](O)[C@H]2O)cc1 (stereo partly drawn) [RSCL-0370, 1-O-(p-Methoxyphenyl)-4,6-O-benzylidene-β-D-glucopyranoside] | 115 | 120 | 108 | 107 | 0 | 0 | 0 | 16
COc1ccc(O[C@H]2O[C@@H]3COC(c4ccccc4)O[C@H]3[C@H](O[C@@H]3O[C@H](CO)[C@@H](OC(=O)CCl)[C@H](OC(C)=O)[C@H]3OC(C)=O)[C@H]2NC(=O)C(Cl)(Cl)Cl)cc1 (stereo partly drawn) [RSCL-0629, p-Methoxy phenyl-O-(2,3-di-O-acetyl-4-O-chloroacetyl-β-D-glucopyranosyl)-(1-3)-2-deoxy-2-trichloroacetamido-4,6-O-benzylidene-α-D-glucopyranoside] | 99 | 57 | 13 | 11 | 0 | 94 | 102 | 100
COc1ccc(O[C@@H]2O[C@H](COC(=O)CCC(C)=O)[C@@H](OC(=O)CCl)[C@H](OC(C)=O)[C@H]2OC(C)=O)cc1 [RSCL-0393, 1-O-(p-Methoxyphenyl)-2,3-di-O-acetyl-4-O-chloroacetyl-6-O-levulinoyl-β-D-glucopyranoside] | 84 | 85 | 81 | 86 | 2 | 13 | 18 | 76
COc1ccc(O[C@H]2O[C@@H]3COC(c4ccccc4)O[C@H]3[C@H](O[C@@H]3O[C@H](COC(=O)CCC(C)=O)[C@@H](O)[C@H](OC(C)=O)[C@H]3OC(C)=O)[C@H]2NC(=O)C(Cl)(Cl)Cl)cc1 (stereo partly drawn) [RSCL-0440, p-Methoxy phenyl-O-(2,3-di-O-acetyl-6-O-levulinoyl-β-D-glucopyranosyl)-(1-3)-2-deoxy-2-trichloroacetamido-4,6-O-benzylidene-α D-glucopyranoside] | 114 | 115 | 129 | 119 | 34 | 42 | 46 | 47
COc1ccc(OC2OC3COC(c4ccccc4)OC3C(OC3OC(COC(=O)CCl)C(OC(=O)CCl)C(OC(C)=O)C3OC(C)=O)C2NC(=O)C(Cl)(Cl)Cl)cc1 [RSCL-0631, p-Methoxy phenyl-O-(2,3-di-O-acetyl-4,6-di-O-chloroacetyl-β-D-glucopyranosyl)-(1-3)-2-deoxy-2-trichloroacetamido-4,6-O-benzylidene-α-D-glucopyranoside] | 95 | 70 | 20 | 8 | 77 | 38 | 92 | 99
COc1ccc(O[C@H]2O[C@@H]3COC(c4ccccc4)O[C@H]3[C@H](O[C@@H]3O[C@H](COC(=O)CCC(C)=O)[C@@H](OS(=O)(=O)O)[C@H](OC(C)=O)[C@H]3OC(C)=O)[C@H]2NC(=O)C(Cl)(Cl)Cl)cc1 (stereo partly drawn) [RSCL-0621, p-Methoxy phenyl-O-(2,3-di-O-acetyl-4-O-sulfo-6-O-levulinoyl-β-D-glucopyranosyl)-(1-3)-2-deoxy-2-trichloroacetamido-4,6-O-benzylidene-α-D-glucopyranoside] | 90 | 95 | 98 | 96 | 36 | 38 | 49 | 66
2,3-Di-O-acetyl-4-O-chloroacetyl-6-O-levulinoyl-β-D-glucopyranosyl)-(1-3)-2-deoxy-2-trichloroacetamido-α/β-D-glucopyranoside [RSCL-0632] | 115 | 113 | 94 | 84 | 0 | 0 | 0 | 30
CC(=O)CCC(=O)OC[C@H]1O[C@@H](O[C@H]2[C@@H]3OC(c4ccccc4)OC[C@H]3OC(O)[C@@H]2NC(=O)C(Cl)(Cl)Cl)[C@H](OC(C)=O)[C@@H](OC(C)=O)[C@@H]1OC(=O)CCl (stereo partly drawn) [RSCL-0627, 2,3-Di-O-acetyl-4-O-chloroacetyl-6-O-levulinoyl-β-D-glucopyranosyl-(1-3)-2-deoxy-2-trichloroacetamido-4,6-O-benzylidene-α/β-D-glucopyranoside] | 105 | 90 | 33 | 13 | 0 | 80 | 104 | 100
COc1ccc(O[C@@H]2O[C@H](COC(C)=O)[C@@H](OC(C)=O)[C@H](OC(C)=O)[C@H]2OC(C)=O)cc1 [RSCL-0367, 1-O-(p-Methoxyphenyl)-2,3,4,6-tetra-O-acetyl-β-D-Glucopyranoside] | 114 | 118 | 105 | 116 | 0 | 0 | 0 | 0
